Measurements: US10464904B2, “Dextrorphan-derivatives with suppressed central nervous activity” (Heinrich-Heine-Universität Düsseldorf, priority 2015, dated 2019)

Test: Rotarod test, time on rod
Assay type: in vivo, C57BL/6 mice
Conditions: mice, 30 minutes after i.p. injection
Procedure: FIG. 6: Time that C57BL/6 mice stayed on rod 30 minutes after i.p. injection of PBS without (control) or with either 50 μg g^−1 body weight DXO or 100 μg g^−1 body weight compound (4); n=5 male mice each. Significance determined by Student's t-test. *P<0.05. All values are mean±SD.

CN1CC[C@@]23CCCC[C@@H]2[C@@H]1Cc1ccc(O)cc13 [dextrorphan, (+)-17-methyl-9α,13α,14α-morphinan-3-ol]
coordination deficits in rotarod test: does
